Source: ChEMBL document CHEMBL4043158, “Synthesis and carbonic anhydrase inhibition of polycyclic imides incorporating N-benzenesulfonamide moieties” (Bioorg Med Chem, 2017)

Molecular target: Carbonic anhydrase 9 (Homo sapiens, UniProt Q16790)
Experiment: Inhibition of human CA9 pre-incubated for 10 mins by stopped-flow CO2 hydrase assay

| Structure (SMILES) | Ki [µM] |
| --- | --- |
| NS(=O)(=O)c1ccc(N2C(=O)c3cccc4cccc(c34)C2=O)cc1 | 0.287 |
| NS(=O)(=O)c1ccc(CCn2c(=O)c3ccccc3c3ccccc3c2=O)cc1 | 0.301 |
| NS(=O)(=O)c1ccc(Cn2c(=O)c3cc4c(=O)n(Cc5ccc(S(N)(=O)=O)cc5)c(=O)c4cc3c2=O)cc1 | 0.639 |
| NS(=O)(=O)c1ccc(CCN2C(=O)c3cccc4cc([N+](=O)[O-])cc(c34)C2=O)cc1 | 0.242 |
| NS(=O)(=O)c1ccc(CN2C(=O)c3ccc4c5c(ccc(c35)C2=O)C(=O)N(Cc2ccc(S(N)(=O)=O)cc2)C4=O)cc1 | 2.78 |
| NS(=O)(=O)c1ccc(-n2c(=O)c3cc4c(=O)n(-c5ccc(S(N)(=O)=O)cc5)c(=O)c4cc3c2=O)cc1 | 0.251 |
| NS(=O)(=O)c1ccc(CCn2c(=O)c3cc4c(=O)n(CCc5ccc(S(N)(=O)=O)cc5)c(=O)c4cc3c2=O)cc1 | 2.05 |
| NS(=O)(=O)c1ccc(CN2C(=O)c3cccc4cc([N+](=O)[O-])cc(c34)C2=O)cc1 | 0.251 |

These reach a lower Ki. Values come first.

| Ki [µM] | Structure (SMILES) |
| --- | --- |
| 0.218 | NS(=O)(=O)c1ccc(N2C(=O)c3cccc4cc([N+](=O)[O-])cc(c34)C2=O)cc1 |
| 0.108 | NS(=O)(=O)c1ccc(CCN2C(=O)c3cccc4cccc(c34)C2=O)cc1 |
| 0.191 | NS(=O)(=O)c1ccc(Cn2c(=O)c3ccccc3c3ccccc3c2=O)cc1 |
| 0.0239 | NS(=O)(=O)c1ccc(N2C(=O)c3ccc4c5c(ccc(c35)C2=O)C(=O)N(c2ccc(S(N)(=O)=O)cc2)C4=O)cc1 |
| 0.0931 | NS(=O)(=O)c1ccc(-n2c(=O)c3ccccc3c3ccccc3c2=O)cc1 |
| 0.108 | NS(=O)(=O)c1ccc(CN2C(=O)c3cccc4cccc(c34)C2=O)cc1 |
| 0.0255 | NS(=O)(=O)CCN1C(=O)c2ccc3c4c(ccc(c24)C1=O)C(=O)N(CCc1ccc(S(N)(=O)=O)cc1)C3=O |
